{"source": "ChEMBL document CHEMBL1201862", "about": "“PubChem BioAssay data set” (2004)", "key": {"[1]": {"target": "T1, Replicative DNA helicase DnaB (Mycobacterium tuberculosis, UniProt P9WMR3)", "T1 sequence (P9WMR3 whole entry)": "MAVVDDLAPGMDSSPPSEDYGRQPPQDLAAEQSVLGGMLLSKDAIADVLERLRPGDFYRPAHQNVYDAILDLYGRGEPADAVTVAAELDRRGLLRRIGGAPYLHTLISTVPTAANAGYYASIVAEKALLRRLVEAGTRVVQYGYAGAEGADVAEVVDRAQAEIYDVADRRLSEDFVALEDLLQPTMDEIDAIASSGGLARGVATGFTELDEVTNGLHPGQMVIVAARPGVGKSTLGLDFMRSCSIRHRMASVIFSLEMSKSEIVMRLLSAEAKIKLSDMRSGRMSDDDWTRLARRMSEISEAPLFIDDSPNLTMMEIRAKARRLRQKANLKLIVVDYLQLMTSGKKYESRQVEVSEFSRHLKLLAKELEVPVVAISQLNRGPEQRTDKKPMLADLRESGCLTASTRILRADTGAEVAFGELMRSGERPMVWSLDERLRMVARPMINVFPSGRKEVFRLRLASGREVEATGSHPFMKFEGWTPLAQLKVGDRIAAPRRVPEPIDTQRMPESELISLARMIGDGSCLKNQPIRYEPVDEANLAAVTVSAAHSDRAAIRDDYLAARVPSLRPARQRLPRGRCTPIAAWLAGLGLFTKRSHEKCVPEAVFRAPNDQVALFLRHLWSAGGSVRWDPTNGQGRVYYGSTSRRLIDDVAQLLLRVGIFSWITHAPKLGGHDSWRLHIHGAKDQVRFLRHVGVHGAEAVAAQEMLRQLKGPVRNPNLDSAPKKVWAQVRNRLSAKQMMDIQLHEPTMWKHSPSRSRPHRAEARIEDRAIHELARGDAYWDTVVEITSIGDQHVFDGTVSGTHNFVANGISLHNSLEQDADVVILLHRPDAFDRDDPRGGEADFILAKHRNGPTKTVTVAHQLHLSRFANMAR", "assay": "DnaB intein splicing inhibitors, dose response, biochemical, cell-free fluorescence (AID 449749)", "type": "functional"}, "[2]": {"target": "T2, High affinity choline transporter 1 (Homo sapiens, UniProt Q9GZV3)", "T2 sequence (Q9GZV3 whole entry)": "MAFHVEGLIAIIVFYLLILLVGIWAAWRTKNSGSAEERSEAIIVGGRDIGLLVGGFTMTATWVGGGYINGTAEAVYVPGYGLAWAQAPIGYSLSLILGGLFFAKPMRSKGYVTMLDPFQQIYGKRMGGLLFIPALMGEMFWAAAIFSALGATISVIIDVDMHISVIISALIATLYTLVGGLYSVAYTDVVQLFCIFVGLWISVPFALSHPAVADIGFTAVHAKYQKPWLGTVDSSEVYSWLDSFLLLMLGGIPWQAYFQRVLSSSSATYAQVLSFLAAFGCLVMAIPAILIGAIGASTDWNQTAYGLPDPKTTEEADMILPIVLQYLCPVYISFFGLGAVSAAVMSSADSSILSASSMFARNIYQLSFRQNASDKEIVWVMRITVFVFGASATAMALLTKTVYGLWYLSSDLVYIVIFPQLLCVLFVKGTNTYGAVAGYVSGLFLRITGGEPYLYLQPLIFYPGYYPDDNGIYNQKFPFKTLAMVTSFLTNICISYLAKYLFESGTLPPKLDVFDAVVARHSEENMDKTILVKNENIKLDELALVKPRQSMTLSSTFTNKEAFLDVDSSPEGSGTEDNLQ", "assay": "CHT inhibitors, dose response, cell-based, 5-point CRC, membrane potential dye (AID 504840)", "type": "functional"}, "[3]": {"target": "T3, Protein RecA (Mycobacterium tuberculosis, UniProt P9WHJ3)", "T3 sequence (P9WHJ3 whole entry)": "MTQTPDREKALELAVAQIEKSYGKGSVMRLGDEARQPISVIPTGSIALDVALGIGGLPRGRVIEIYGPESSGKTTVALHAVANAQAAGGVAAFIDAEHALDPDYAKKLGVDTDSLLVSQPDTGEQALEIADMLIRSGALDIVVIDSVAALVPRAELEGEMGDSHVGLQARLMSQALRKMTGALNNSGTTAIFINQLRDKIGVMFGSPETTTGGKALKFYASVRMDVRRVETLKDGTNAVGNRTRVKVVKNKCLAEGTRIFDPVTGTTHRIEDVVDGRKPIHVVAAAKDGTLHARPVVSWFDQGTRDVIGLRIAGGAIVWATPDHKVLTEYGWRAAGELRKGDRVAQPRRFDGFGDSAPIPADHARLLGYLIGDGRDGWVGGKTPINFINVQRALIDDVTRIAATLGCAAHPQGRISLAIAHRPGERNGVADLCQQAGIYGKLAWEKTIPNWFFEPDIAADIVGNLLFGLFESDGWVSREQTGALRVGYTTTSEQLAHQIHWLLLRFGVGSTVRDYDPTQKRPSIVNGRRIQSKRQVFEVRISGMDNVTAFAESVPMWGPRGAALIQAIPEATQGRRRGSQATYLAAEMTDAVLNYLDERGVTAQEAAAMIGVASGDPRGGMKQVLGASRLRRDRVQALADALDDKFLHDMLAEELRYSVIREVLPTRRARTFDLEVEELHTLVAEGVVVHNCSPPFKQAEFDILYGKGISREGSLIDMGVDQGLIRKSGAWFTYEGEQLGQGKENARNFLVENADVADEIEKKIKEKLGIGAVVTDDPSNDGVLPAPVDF", "assay": "Fluorescence Cell-Free Homogeneous Dose Retest to Identify Inhibitors of RecA-Intein Splicing Activity. [Related pubchem assays (depositor defined):AID2097, AID2223, AID489010, AID492950]", "type": "functional"}, "[4]": {"system": "Vero", "assay": "cells", "type": "functional", "conditions": "Chlorocebus sabaeus"}, "[5]": {"target": "T2, High affinity choline transporter 1", "assay": "CHT inhibitors, dose response, cell-based, 10-point CRC, membrane potential dye (AID 588401);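 further: membrane potential dye fluorescence of choline-evoked depolarization via CHT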", "type": "functional"}, "[6]": {"assay": "Shn3 3'UTR reporter inhibitors, dose response, cell-based, Clone20 osteoblasts, firefly luciferase, cherry-picked (AID 624132);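 further: firefly luciferase luminescence from reporter carrying the Shn3 3'UTR in osteoblasts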", "type": "functional"}, "[7]": {"assay": "HepG2 cell cytotoxicity, dose response, cytotoxicity control for Shn3 inhibitor project, CellTiter-Glo, cherry-picked (AID 624134)", "type": "functional, cell-based"}, "[8]": {"assay": "control 3'UTR Renilla luciferase suppression, dose response, counter-screen for Shn3 inhibitor project, cell-based, Clone20-Shn3RL, cherry-picked (AID 624133)", "type": "functional"}, "[9]": {"target": "Melanin-concentrating hormone receptor 1 (Homo sapiens, UniProt Q99705)", "sequence (Q99705 whole entry)": "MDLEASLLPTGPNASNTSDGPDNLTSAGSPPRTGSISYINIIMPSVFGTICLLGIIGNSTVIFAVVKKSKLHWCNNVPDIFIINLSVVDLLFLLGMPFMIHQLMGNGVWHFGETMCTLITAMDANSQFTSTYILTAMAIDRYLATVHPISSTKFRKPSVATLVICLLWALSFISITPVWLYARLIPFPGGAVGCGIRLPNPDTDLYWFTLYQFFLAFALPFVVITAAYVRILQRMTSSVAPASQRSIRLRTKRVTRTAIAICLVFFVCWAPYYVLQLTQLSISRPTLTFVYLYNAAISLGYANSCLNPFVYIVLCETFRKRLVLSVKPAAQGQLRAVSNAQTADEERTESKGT", "assay": "Late-stage fluorescence-based counterscreen for antagonists of the G-protein coupled receptor 7 (GPR7): cell-based dose response assay to identify antagonists of the melanin-concentrating hormone receptor 1 (MCHR1) Set 6.", "type": "functional"}, "[10]": {"target": "T4, Neuropeptides B/W receptor type 1 (Homo sapiens, UniProt P48145)", "T4 sequence (P48145 whole entry)": "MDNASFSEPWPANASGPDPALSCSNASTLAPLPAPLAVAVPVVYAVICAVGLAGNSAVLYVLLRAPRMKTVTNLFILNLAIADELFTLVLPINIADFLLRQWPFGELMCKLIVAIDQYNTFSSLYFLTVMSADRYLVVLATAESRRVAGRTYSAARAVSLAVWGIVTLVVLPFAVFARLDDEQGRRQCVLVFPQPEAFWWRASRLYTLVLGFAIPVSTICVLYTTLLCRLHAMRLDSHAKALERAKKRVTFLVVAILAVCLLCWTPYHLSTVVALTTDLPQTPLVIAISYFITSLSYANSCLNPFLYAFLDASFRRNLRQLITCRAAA", "assay": "GPR7 antagonist potency, late-stage follow-up, cell-based, fluorescence, dose response, set 6 (AID 588583)", "type": "functional"}}, "note": "Calls of active or inactive are those of the source."}
{"smiles": "Cc1nnc(NC(=O)c2nc(S(=O)(=O)Cc3ccccc3)ncc2Cl)s1", "values": [{"measurement": "AC50", "setting": "[1]", "value": "17.8 µM (active)"}, {"measurement": "IC50", "setting": "[2]", "value": "7.31 µM (active)"}, {"measurement": "EC50", "setting": "[3]", "value": "4.01 µM (active)"}, {"measurement": "CC50", "setting": "[4]", "value": "17.8 µM (active)"}, {"measurement": "IC50", "setting": "[5]", "value": "4.47 µM (active)"}, {"measurement": "AC50", "setting": "[6]", "value": "1.34 µM (active)"}, {"measurement": "AC50", "setting": "[7]", "value": "> 70 µM (inactive)"}, {"measurement": "AC50", "setting": "[8]", "value": "12.8 µM (active)"}]}
{"smiles": "O=c1c(-c2cccc(F)c2)c(Br)cnn1Cc1cccc2ccccc12", "values": [{"measurement": "IC50", "setting": "[9]", "value": "0.533 µM (active)"}, {"measurement": "IC50", "setting": "[10]", "value": "0.533 µM (active)"}]}
